Data reported in US12077503B2, “Substituted cyclic amides and their use as herbicides” (FMC CORPORATION, priority 2015, dated 2024).

Assays:
Test in all cases: Test C preemergence
Format in all cases: in vivo
[1] = test system: waterhemp (common waterhemp, Amaranthus rudis); settings: for Plant response rating, Waterhemp: scale 0 to 100, 0 no effect, 100 complete control
Outline: (§1)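 Assessment: visual, 13–15 d after treatment, 0 (no effect) to 100 (complete control) relative to controls. Treatment: preemergence to seeds in loam-sand soil, or postemergence to 1- to 4-leaf plants in peat-based medium. Formulation: non-phytotoxic solvent mixture with surfactant.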

[2] = test system: ryegrass, Italian (Italian ryegrass, Lolium multiflorum); settings: for Plant response rating, Ryegrass, Italian: scale 0 to 100, 0 no effect, 100 complete control
Outline: as §1

[3] = test system: wheat (winter wheat, Triticum aestivum); settings: for Plant response rating, Wheat: scale 0 to 100, 0 no effect, 100 complete control
Outline: as §1

[4] = test system: morningglory (Ipomoea coccinea); settings: for Plant response rating, Morningglory: scale 0 to 100, 0 no effect, 100 complete control
Outline: as §1

[5] = test system: crabgrass, large (large crabgrass, Digitaria sanguinalis); settings: for Plant response rating, Crabgrass, Large: scale 0 to 100, 0 no effect, 100 complete control
Outline: as §1

[6] = test system: pigweed (Amaranthus retroflexus); settings: for Plant response rating, Pigweed: scale 0 to 100, 0 no effect, 100 complete control
Outline: as §1

[7] = test system: ragweed (common ragweed, Ambrosia elatior); settings: for Plant response rating, Ragweed: scale 0 to 100, 0 no effect, 100 complete control
Outline: as §1

[8] = test system: lambsquarters (Chenopodium album); settings: for Plant response rating, Lambsquarters: scale 0 to 100, 0 no effect, 100 complete control
Outline: as §1

[9] = test system: johnsongrass (Sorghum halepense); settings: for Plant response rating, Johnsongrass: scale 0 to 100, 0 no effect, 100 complete control
Outline: as §1

[10] = test system: oilseed rape (Brassica napus); settings: for Plant response rating, Oilseed Rape: scale 0 to 100, 0 no effect, 100 complete control
Outline: as §1

[11] = test system: velvetleaf (Abutilon theophrasti); settings: for Plant response rating, Velvetleaf: scale 0 to 100, 0 no effect, 100 complete control
Outline: as §1

[12] = test system: foxtail, giant (giant foxtail, Setaria faberii); settings: for Plant response rating, Foxtail, Giant: scale 0 to 100, 0 no effect, 100 complete control
Outline: as §1

soybean (Glycine max) = settings: for Plant response rating, Soybean: scale 0 to 100, 0 no effect, 100 complete control
Outline: as §1

corn (Zea mays) = settings: for Plant response rating, Corn: scale 0 to 100, 0 no effect, 100 complete control
Outline: as §1

[13] = test system: nutsedge, yellow (yellow nutsedge, Cyperus esculentus); settings: for Plant response rating, Nutsedge, Yellow: scale 0 to 100, 0 no effect, 100 complete control
Outline: as §1

[14] = test system: Galium (catchweed bedstraw, Galium aparine); settings: for Plant response rating, Galium: scale 0 to 100, 0 no effect, 100 complete control
Outline: as §1

[15] = test system: barnyardgrass (Echinochloa crus-galli); settings: for Plant response rating, Barnyardgrass: scale 0 to 100, 0 no effect, 100 complete control
Outline: as §1

[16] = 31 g ai/ha, 0 is no effect, 100 is complete control

## CN1CC(c2cccc(C(F)(F)F)c2)C(C(=O)Nc2cccc(F)c2F)C1=O (centres unmarked) [Compound 636]
[1]; [16]
  Plant response rating (scale of 0 to 100), Waterhemp: 65
[1]; 62 g ai/ha
  Plant response rating, Waterhemp: 75
[1]; 125 g ai/ha
  Plant response rating, Waterhemp: 85
[1]; 250 g ai/ha
  Plant response rating, Waterhemp: 85
[2]; [16]
  Plant response rating (scale of 0 to 100), Ryegrass, Italian: 70
[2]; 62 g ai/ha
  Plant response rating, Ryegrass, Italian: 30
[2]; 125 g ai/ha
  Plant response rating, Ryegrass, Italian: 50
[2]; 250 g ai/ha
  Plant response rating, Ryegrass, Italian: 90
[3]; [16]
  Plant response rating (scale of 0 to 100), Wheat: 35
[3]; 62 g ai/ha
  Plant response rating, Wheat: 45
[3]; 125 g ai/ha
  Plant response rating, Wheat: 65
[3]; 250 g ai/ha
  Plant response rating, Wheat: 75
[4]; [16]
  Plant response rating (scale of 0 to 100), Morningglory: 5
[4]; 62 g ai/ha
  Plant response rating, Morningglory: 25
[4]; 125 g ai/ha
  Plant response rating, Morningglory: 35
[4]; 250 g ai/ha
  Plant response rating, Morningglory: 65
[5]; [16]
  Plant response rating (scale of 0 to 100), Crabgrass, Large: 95
[5]; 62 g ai/ha
  Plant response rating, Crabgrass, Large: 98
[5]; 125 g ai/ha
  Plant response rating, Crabgrass, Large: 100
[5]; 250 g ai/ha
  Plant response rating, Crabgrass, Large: 100
[6]; [16]
  Plant response rating (scale of 0 to 100), Pigweed: 60
[6]; 62 g ai/ha
  Plant response rating, Pigweed: 70
[6]; 125 g ai/ha
  Plant response rating, Pigweed: 80
[6]; 250 g ai/ha
  Plant response rating, Pigweed: 85
[7]; [16]
  Plant response rating (scale of 0 to 100), Ragweed: 20
[7]; 62 g ai/ha
  Plant response rating, Ragweed: 65
[7]; 125 g ai/ha
  Plant response rating, Ragweed: 65
[7]; 250 g ai/ha
  Plant response rating, Ragweed: 80
[8]; [16]
  Plant response rating (scale of 0 to 100), Lambsquarters: 40
[8]; 62 g ai/ha
  Plant response rating, Lambsquarters: 40
[8]; 125 g ai/ha
  Plant response rating, Lambsquarters: 55
[8]; 250 g ai/ha
  Plant response rating, Lambsquarters: 65
[9]; [16]
  Plant response rating (scale of 0 to 100), Johnsongrass: 80
[9]; 62 g ai/ha
  Plant response rating, Johnsongrass: 85
[9]; 125 g ai/ha
  Plant response rating, Johnsongrass: 85
[9]; 250 g ai/ha
  Plant response rating, Johnsongrass: 90
[10]; [16]
  Plant response rating (scale of 0 to 100), Oilseed Rape: 80
[10]; 62 g ai/ha
  Plant response rating, Oilseed Rape: 60
[10]; 125 g ai/ha
  Plant response rating, Oilseed Rape: 85
[10]; 250 g ai/ha
  Plant response rating, Oilseed Rape: 90
[11]; [16]
  Plant response rating (scale of 0 to 100), Velvetleaf: 5
[11]; 62 g ai/ha
  Plant response rating, Velvetleaf: 50
[11]; 125 g ai/ha
  Plant response rating, Velvetleaf: 55
[11]; 250 g ai/ha
  Plant response rating, Velvetleaf: 55
[12]; [16]
  Plant response rating (scale of 0 to 100), Foxtail, Giant: 85
[12]; 62 g ai/ha
  Plant response rating, Foxtail, Giant: 90
[12]; 125 g ai/ha
  Plant response rating, Foxtail, Giant: 90
[12]; 250 g ai/ha
  Plant response rating, Foxtail, Giant: 90
Soybean (Glycine max); [16]
  Plant response rating (scale of 0 to 100), Soybean: 0
Soybean (Glycine max); 62 g ai/ha
  Plant response rating, Soybean: 75
Soybean (Glycine max); 125 g ai/ha
  Plant response rating, Soybean: 0
Soybean (Glycine max); 250 g ai/ha
  Plant response rating, Soybean: 0
Corn (Zea mays); [16]
  Plant response rating (scale of 0 to 100), Corn: 60
Corn (Zea mays); 62 g ai/ha
  Plant response rating, Corn: 80
Corn (Zea mays); 125 g ai/ha
  Plant response rating, Corn: 85
Corn (Zea mays); 250 g ai/ha
  Plant response rating, Corn: 90
[13]; [16]
  Plant response rating (scale of 0 to 100), Nutsedge, Yellow: 0
[13]; 62 g ai/ha
  Plant response rating, Nutsedge, Yellow: 75
[13]; 125 g ai/ha
  Plant response rating, Nutsedge, Yellow: 0
[13]; 250 g ai/ha
  Plant response rating, Nutsedge, Yellow: 60
[14]; [16]
  Plant response rating (scale of 0 to 100), Galium: 85
[14]; 62 g ai/ha
  Plant response rating, Galium: 85
[14]; 125 g ai/ha
  Plant response rating, Galium: 90
[14]; 250 g ai/ha
  Plant response rating, Galium: 90
[15]; [16]
  Plant response rating (scale of 0 to 100), Barnyardgrass: 90
[15]; 62 g ai/ha
  Plant response rating, Barnyardgrass: 90
[15]; 125 g ai/ha
  Plant response rating, Barnyardgrass: 95
[15]; 250 g ai/ha
  Plant response rating, Barnyardgrass: 95
